From US10414759B2, “Phenylthiazoles and uses thereof” (Purdue Research Foundation, priority 2017, dated 2019)
≈ marks a conversion by molar mass, not a printed value. Entries after “also recorded” stand apart in the source; their conditions may differ. Where two headings read alike, the source gives them in different places.

Columns and labels:
[1] = system: MRSA (2658 RCMB); assay: MIC against MRSA (2658 RCMB), broth dilution; assay type: cell-based, Staphylococcus aureus; conditions: for MIC: Staphylococcus aureus
Description: Bacteria were cultured in cation-adjusted Mueller Hinton broth in a 96-well plate. Compounds, using triplicate samples, were added to the plate and serially diluted. […] Plates were visually inspected and the MIC was categorized as the concentration at which no visible growth of bacteria was observed. The average of triplicate MIC determinations is reported.
A bacterial solution equivalent to 0.5 McFarland standard was prepared and diluted in cation-adjusted Mueller-Hinton broth (CAMHB) to achieve a bacterial concentration of about 5×10^5 CFU/mL and seeded in 96-well plates. Enterococcus faecium was diluted in brain heart infusion broth. Enterococcus faecalis, Streptococcus pneumonia and Listeria monocytogenes were diluted in tryptone soya broth (TSB).

[2] = Metabolic stability in human liver microsomes; assay type: in vitro ADME; conditions: pH 7.4, human liver microsomes
Description: The tested compounds were incubated in duplicate with human liver microsomes at 37° C. The reaction contained microsomal protein in 100 mM potassium phosphate, 2 mM NADPH, 3 mM MgCl2, pH 7.4. A control was run for each test agent omitting NADPH to detect NADPH-free degradation. At 0, 10, 20, 40, and 60 minutes, an aliquot was removed from each experimental and control reaction and mixed with an equal volume of ice-cold Stop Solution (methanol containing haloperidol, diclofenac, or other internal standard). Stopped reactions are incubated at least ten minutes at −20° C., and an additional volume of water was added. The samples were centrifuged to remove precipitated protein, and the supernatants were analyzed by LC/MS/MS to quantitate the remaining parent. Data are converted to % remaining by dividing by the time zero concentration value. Data are fit to a first-order decay model to determine half-life. Intrinsic clearance is calculated from the half-life and the protein concentrations: CLint=ln(2)/(T1/2 [microsomal protein]).

[3] = PBS solubility screen (turbidometric); assay type: physicochemical
Description: The solutions were diluted 100-fold into PBS in a 96-well plate and mixed. The absorbance of the PBS-containing plate was measured prior to addition of the test agents to determine the background absorbance. After 2 h, the presence of precipitate was detected by turbidity (absorbance at 540 nm). […] The solubility limit is reported as the highest experimental concentration with no evidence of turbidity.

[4] = system: Caco-2 cells; assay: Caco-2 bidirectional permeability assay; conditions: for Mean A→B Papp: Caco-2, apical to basolateral
[5] = Table 1, MRSA (2658 RCMB), read-out: MIC ± SD
[6] = NADPH omitted, read-out: NADPH-free Clint
[7] = NADPH omitted, read-out: NADPH-free t1/2
[8] = with NADPH, read-out: NADPH-dependent CLint
[9] = with NADPH, read-out: NADPH-dependent t1/2
[10] = aqueous buffer, kinetic from dmso stock
[11] = aqueous buffer, kinetic from dmso stock, phosphate buffered saline (PBS), highest concentration with no precipitate (OD540), read-out: Solubility limit
[12] = Table 7, initial screening, MRSA (2658 RCMB), read-out: minimum inhibitory concentration (MIC)

Row | MIC [1, 5] [µg/mL] | melting point | Compound | further results
1 | > 25 | 105.4 °C | CCCCc1ccc(-c2nc(C)c(C(=O)/C=C/N(C)C)s2)cc1 [Compound 4, (E)-1-[2-(4-Butylphenyl)-4-methylthiazol-5-yl]-3-(dimethyl-amino)prop-2-en-1-one] | –
2 | > 25 | 227 °C (dec.) | CCCCc1ccc(-c2nc(C)c(-c3ccnc(NC)n3)s2)cc1 [Compound 9, 4-[2-(4-Butylphenyl)-4-methylthiazol-5-yl]-N-methylpyrimidin-2-amine] | antibacterial (anti-MRSA) activity, in words ([1]; Table 1): dramatically decreased the antibacterial activity
3 | 0.78 (≈ 1.98 µM) | 153.7 °C | CCCCc1ccc(-c2nc(C)c(-c3ccnc(NC(=N)N(C)C)n3)s2)cc1 [Compound 11, 3-{4-[2-(4-Butylphenyl)-4-methylthiazol-5-yl]pyrimidin-2-yl}-1,1-dimethylguanidine] | antibacterial (anti-MRSA) activity, in words ([1]; Table 1): more potent than vancomycin; also recorded: MIC value below one microgram/mL; microsomal CLint [2, 6]: 0.5 µL/min/mg; half-life [2, 7]: > 1 h; half-life [2, 9]: 4.05 h; solubility at 2 h [3, 10]: 53 µM (≈ 20.9 µg/mL)
4 | > 25 | 163.7 °C | CCCCc1ccc(-c2nc(C)c(-c3ccnc(-n4cccn4)n3)s2)cc1 [Compound 14, 2-(4-Butylphenyl)-5-[2-(1H-pyrazol-1-yl)pyrimidin-4-yl]-4-methylthiazole] | antibacterial (anti-MRSA) activity, in words ([1]; Table 1): exhibited no antibacterial activity
5 | > 25 | 153.7 °C | CCCCc1ccc(-c2nc(C)c(-c3ccnc(N4CCCC4)n3)s2)cc1 [Compound 15, 2-(4-Butylphenyl)-4-methyl-5-(2-(pyrrolidin-1-yl)pyrimidin-4-yl)thiazole] | antibacterial (anti-MRSA) activity, in words ([1]; Table 1): lacks any antibacterial activity
6 | 3.12 (≈ 9.33 µM) | 160.6 °C | Cc1nc(-c2ccc(C3=CCCC3)cc2)sc1-c1ccnc(N)n1 [Compound 27, 4-{2-[4-(Cyclopent-1-en-1-yl)phenyl]-4-methylthiazol-5-yl}pyrimidin-2-amine] | solubility at 2 h [3, 10]: 35 µM (≈ 11.7 µg/mL)
7 | 3.12 (≈ 8.61 µM) | 164 °C | Cc1nc(-c2ccc(C3=CCCCCC3)cc2)sc1-c1ccnc(N)n1 [Compound 30, 4-{2-[4-(Cyclohept-1-en-1-yl)phenyl]-4-methylthiazol-5-yl}pyrimidin-2-amine] | –
8 | 5.6 ± 0.1 (≈ 14.9 µM) | 188 °C | Cc1nc(-c2ccc(C3=CCCCCCC3)cc2)sc1-c1ccnc(N)n1 [Compound 31, 4-{2-[4-(Cyclooct-1-en-1-yl)phenyl]-4-methylthiazol-5-yl}pyrimidin-2-amine] | –
9 | 3.12 (≈ 8.61 µM) | 180.7 °C | Cc1nc(-c2ccc(/C=C/C3CCCC3)cc2)sc1-c1ccnc(N)n1 [Compound 34, (E)-4-{2-[4-(2-Cyclopentylvinyl)phenyl]-4-methylthiazol-5-yl}pyrimidin-2-amine] | –

The next lines start with the compound.

Row | Compound | MIC [1, 5] [µg/mL] | melting point | further results
10 | CCCCc1ccc(-c2nc(C)c(-c3ccnc(N)n3)s2)cc1 [Compound 8, 4-[2-(4-Butylphenyl)-4-methylthiazol-5-yl]pyrimidin-2-amine] | 3.12 ± 0.1 (≈ 9.62 µM) | 159 °C | MIC ± SD ([1]; Table 1, MRSA (2658 RCMB)): 3.12 ± 0.10 µg/mL (≈ 9.62 µM); microsomal CLint [2, 6]: 0.5 µL/min/mg; half-life [2, 7]: > 1 h; microsomal CLint [2, 8]: 3 to 7.5 µL/min/mg; half-life [2, 9]: 3.25 h; less soluble than the lead compound 1 ([3]; 2 h): 32%; solubility at 2 h [3, 10]: 42 µM (≈ 13.6 µg/mL); Mean A→B Papp [4]: 14.9 ×10⁻⁶ cm/s; Mean B→A Papp ([4]; Caco-2, basolateral to apical): 17 ×10⁻⁶ cm/s; Efflux ratio ([4]; Papp (B→A)/Papp (A→B)): 1.1
11 | CCCCc1ccc(-c2nc(C)c(-c3ccnc(NC#N)n3)s2)cc1 [Compound 10, N-{4-[2-(4-Butylphenyl)-4-methylthiazol-5-yl]pyrimidin-2-yl}cyanamide] | 18.7 ± 2.3 (≈ 53.5 µM) | 118 °C | antibacterial (anti-MRSA) activity, in words ([1]; Table 1): dramatically decreased the antibacterial activity
12 | CCCCc1ccc(-c2nc(C)c(-c3ccnc(NC(N)=S)n3)s2)cc1 [Compound 12, 1-{4-[2-(4-Butylphenyl)-4-methylthiazol-5-yl]pyrimidin-2-yl}thiourea] | – | 212 °C (dec.) | MIC ([1]; MRSA, read-out: MIC ± SD): > 25 µg/mL; antibacterial (anti-MRSA) activity, in words ([1]; Table 1): complete abolishment of the anti-MRSA activity
13 | Cc1nc(-c2ccc(-c3ccoc3)cc2)sc1-c1ccnc(N)n1 [Compound 24, 4-{2-[4-(Furan-3-yl)phenyl]-4-methylthiazol-5-yl}pyrimidin-2-amine] | – | 161.2 °C | MIC ([1]; MRSA, read-out: MIC ± SD): 7.8 ± 0.5 µg/mL (≈ 23.3 µM); solubility at 2 h [3, 11]: 13 µM (≈ 4.35 µg/mL)
14 | Cc1nc(-c2ccc(-c3ccco3)cc2)sc1-c1ccnc(N)n1 [Compound 25, 4-{2-[4-(Furan-2-yl)phenyl]-4-methylthiazol-5-yl}pyrimidin-2-amine] | – | 209.3 °C | MIC ([1]; MRSA, read-out: MIC ± SD): 8.7 ± 0.3 µg/mL (≈ 26 µM); solubility at 2 h [3, 11]: 14 µM (≈ 4.68 µg/mL)
15 | Cc1nc(-c2ccc(-c3ccsc3)cc2)sc1-c1ccnc(N)n1 [Compound 26, 4-{4-Methyl-2-[4-(thiophen-3-yl)phenyl]thiazol-5-yl}pyrimidin-2-amine] | 6.25 (≈ 17.8 µM) | 225 °C (dec.) | solubility at 2 h [3, 10]: 8.5 µM (≈ 2.98 µg/mL)
16 | Cc1nc(-c2ccc(C3=CCC(C)C3)cc2)sc1-c1ccnc(N)n1 (stereo not shown) [Compound 28, 4-{4-Methyl-2-[4-(4-methylcyclopent-1-en-1-yl)phenyl]thiazol-5-yl}pyrimidin-2-amine] | 3.8 ± 0.4 (≈ 10.9 µM) | 141 °C | –
17 | Cc1nc(-c2ccc(C3=CCCCC3)cc2)sc1-c1ccnc(N)n1 [Compound 29, 4-{2-[4-(Cyclohex-1-en-1-yl)phenyl]-4-methylthiazol-5-yl}pyrimidin-2-amine] | 0.78 (≈ 2.24 µM) | 140.4 °C | solubility at 2 h [3, 10]: 37 µM (≈ 12.9 µg/mL)
18 | Cc1nc(-c2ccc(C=C3CCCC3)cc2)sc1-c1ccnc(N)n1 [Compound 32, 4-{2-[4-(Cyclopentylidenemethyl)phenyl]-4-methylthiazol-5-yl}pyrimidin-2-amine] | 1.17 ± 0.19 (≈ 3.36 µM) | 143 °C | –
19 | Cc1nc(-c2ccc(C=C3CCCCC3)cc2)sc1-c1ccnc(N)n1 [Compound 33, 4-{2-[4-(Cyclohexylidenemethyl)phenyl]-4-methylthiazol-5-yl}pyrimidin-2-amine] | – | 165 °C | MIC ([1]; MRSA, read-out: MIC ± SD): 1.56 µg/mL (≈ 4.3 µM)
20 | Cc1nc(-c2ccc(/C=C/C3CCCCC3)cc2)sc1-c1ccnc(N)n1 [Compound 35, (E)-4-{2-[4-(2-Cyclohexylvinyl)phenyl]-4-methylthiazol-5-yl}pyrimidin-2-amine] | 3.12 (≈ 8.29 µM) | 189 °C | –
21 | Cc1nc(-c2ccc(C(C)(C)C)cc2)sc1-c1ccnc(NC(=N)N2CCCC2)n1 [Compound 60, N-(4-(2-(4-(tert-Butyl)phenyl)-4-methylthiazol-5-yl)pyrimidin-2-yl) pyrrolidine-1-carboximidamide] | – | – | MIC [1, 12]: 50 µg/mL (≈ 119 µM)
22 | Cc1nc(-c2ccc(C(C)(C)C)cc2)sc1-c1ccnc(NC(=N)N2CCN(C)CC2)n1 [Compound 62, N-(4-(2-(4-(tert-Butyl)phenyl)-4-methylthiazol-5-yl)pyrimidin-2-yl)-4-methylpiperazine-1-carboximidamide] | – | – | MIC [1, 12]: 3.12 µg/mL (≈ 6.94 µM)
23 | CNC(=C[N+](=O)[O-])NCCSCc1ccc(CN(C)C)o1 [Ranitidine, ranitidine, reference compound] | – | – | Mean A→B Papp [4]: 0.2 ×10⁻⁶ cm/s
24 | COC(=O)[C@H]1[C@H]2C[C@@H]3c4[nH]c5cc(OC)ccc5c4CCN3C[C@H]2C[C@@H](OC(=O)c2cc(OC)c(OC)c(OC)c2)[C@@H]1OC [Reserpine, reserpine, reference compound] | – | – | solubility at 2 h ([3]; phosphate buffered saline (PBS), highest concentration with no precipitate (OD540), read-out: Solubility limit): 31.3 µM (≈ 19.1 µg/mL)
25 | CC(=O)CC(c1ccccc1)c1c(O)c2ccccc2oc1=O (stereo not shown) [Warfarin, warfarin, reference compound] | – | – | microsomal CLint [2, 8]: 0.3 µL/min/mg
